Laboratory results published in US4068070A, “α-Cyanoamine compounds and a process for producing the same” (Fuji Chemical Industry Co., Ltd., priority 1974, dated 1978).
Counter-ions that a name gives are not always drawn.

Columns and labels:
[1] = system: arterial mean blood pressure; assay: Effects on arterial mean blood pressure; format: in vivo, mongrel adult dogs
In short: (§1)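 Open-chest, pentobarbital-anesthetized mongrel dogs (male and female, about 10 kg) received compounds intravenously via the brachial vein; vehicles were 0.2% CMC suspension, HCl solution (pH 6) or physiological saline. Mean arterial pressure came from a carotid-aortic cannula transducer, aortic flow from an electromagnetic flowmeter at the aortic root.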

aortic blood flow = assay: Effects on aortic blood flow; format: in vivo, mongrel adult dogs
In short: as §1

coronary sinus out flow = assay: Effects on coronary sinus out flow; format: in vivo, mongrel adult dogs
In short: (§2)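 Dog, mongrel, ~10 kg, thoracotomized, pentobarbital anesthesia. Dosing i.v. (brachial), vehicle CMC 0.2%, HCl pH 6 or saline. Coronary sinus outflow by electromagnetic flowmeter, coronary sinus pO2 by macro electrode, both via Morawitz cannulation.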

[2] = system: coronary sinus oxygen tension; assay: Effects on coronary sinus oxygen tension; format: in vivo, mongrel adult dogs
In short: as §2

heart rate = assay: Effects on heart rate; format: in vivo, mongrel adult dogs
In short: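 Adult mongrel dogs of both sexes were anesthetized with pentobarbital and thoracotomized. Test agents, suspended or dissolved in 0.2% CMC, pH 6 HCl solution or saline, were injected intravenously into the brachial vein. Hemodynamic and coronary sinus parameters were then recorded.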

coronary blood flow = conditions: marketed antianginal drug; cited from earlier work

In the case of `COc1ccc(CN2CCNCC2)c(OC)c1OC` [Vastarel F, 2,3,4-trimethoxybenzylpiperazine dihydrochloride, reference compound], the “Changes (%) of basal values, arterial mean blood pressure” value ([1]; 0.2 mg/kg i.v., 1 min) is reported as -1.0%, the “Changes (%) of basal values, arterial mean blood pressure” value ([1]; 0.2 mg/kg i.v., 5 min) is reported as -2.0% and the “Changes (%) of basal values, arterial mean blood pressure” value ([1]; 0.2 mg/kg i.v., 10 min) is reported as -1.5%. For the same molecule, the “Changes (%) of basal values, arterial mean blood pressure” value ([1]; 0.2 mg/kg i.v., 20 min) was 0%, the “Changes (%) of basal values, arterial mean blood pressure” value ([1]; 0.2 mg/kg i.v., 30 min) was 0% and the “Changes (%) of basal values, arterial mean blood pressure” value ([1]; 0.2 mg/kg i.v., imm.) was -3.0%. For the same molecule, the “Changes (%) of basal values, arterial mean blood pressure” value ([1]; 0.6 mg/kg i.v., 1 min) was -2.0%, the “Changes (%) of basal values, arterial mean blood pressure” value ([1]; 0.6 mg/kg i.v., 5 min) was -1.5% and the “Changes (%) of basal values, arterial mean blood pressure” value ([1]; 0.6 mg/kg i.v., 10 min) was -1.0%. The “Changes (%) of basal values, arterial mean blood pressure” value ([1]; 0.6 mg/kg i.v., 20 min) was 0%, the “Changes (%) of basal values, arterial mean blood pressure” value ([1]; 0.6 mg/kg i.v., 30 min) was 0% and the “Changes (%) of basal values, arterial mean blood pressure” value ([1]; 0.6 mg/kg i.v., imm.) was -6.0%. For the same molecule, the “Changes (%) of basal values, arterial mean blood pressure” value ([1]; 2.0 mg/kg i.v., 1 min) was -35.0%, the “Changes (%) of basal values, arterial mean blood pressure” value ([1]; 2.0 mg/kg i.v., 5 min) was -2.0% and the “Changes (%) of basal values, arterial mean blood pressure” value ([1]; 2.0 mg/kg i.v., 10 min) was -1.0%. For the same molecule, the “Changes (%) of basal values, arterial mean blood pressure” value ([1]; 2.0 mg/kg i.v., 20 min) was -1.0%, the “Changes (%) of basal values, arterial mean blood pressure” value ([1]; 2.0 mg/kg i.v., 30 min) was -2.0% and the “Changes (%) of basal values, arterial mean blood pressure” value ([1]; 2.0 mg/kg i.v., imm.) was -55.0%. For the same molecule, the “Changes (%) of basal values, aortic blood flow” value (“Changes (%) … aortic blood flow” below) (aortic blood flow; 0.2 mg/kg i.v., 1 min) was 0%, the “Changes (%) … aortic blood flow” value (aortic blood flow; 0.2 mg/kg i.v., 5 min) was 0% and the “Changes (%) … aortic blood flow” value (aortic blood flow; 0.2 mg/kg i.v., 10 min) was 0%. For the same molecule, the “Changes (%) … aortic blood flow” value (aortic blood flow; 0.2 mg/kg i.v., 20 min) was 0%, the “Changes (%) … aortic blood flow” value (aortic blood flow; 0.2 mg/kg i.v., 30 min) was 0% and the “Changes (%) … aortic blood flow” value (aortic blood flow; 0.2 mg/kg i.v., imm.) was 0%. For the same molecule, the “Changes (%) … aortic blood flow” value (aortic blood flow; 0.6 mg/kg i.v., 1 min) was “+0.5%”, the “Changes (%) … aortic blood flow” value (aortic blood flow; 0.6 mg/kg i.v., 5 min) was 0% and the “Changes (%) … aortic blood flow” value (aortic blood flow; 0.6 mg/kg i.v., 10 min) was -1.0%. The “Changes (%) … aortic blood flow” value (aortic blood flow; 0.6 mg/kg i.v., 20 min) was -1.0%, the “Changes (%) … aortic blood flow” value (aortic blood flow; 0.6 mg/kg i.v., 30 min) was 0% and the “Changes (%) … aortic blood flow” value (aortic blood flow; 0.6 mg/kg i.v., imm.) was “+1.5%”. The “Changes (%) … aortic blood flow” value (aortic blood flow; 2.0 mg/kg i.v., 1 min) was 0%, the “Changes (%) … aortic blood flow” value (aortic blood flow; 2.0 mg/kg i.v., 5 min) was “+11.0%” and the “Changes (%) … aortic blood flow” value (aortic blood flow; 2.0 mg/kg i.v., 10 min) was “+23.0%”. The “Changes (%) … aortic blood flow” value (aortic blood flow; 2.0 mg/kg i.v., 20 min) was “+5.0%”, the “Changes (%) … aortic blood flow” value (aortic blood flow; 2.0 mg/kg i.v., 30 min) was “+5.0%” and the “Changes (%) … aortic blood flow” value (aortic blood flow; 2.0 mg/kg i.v., imm.) was -78.0%. For the same molecule, the “Changes(%) of basal values, coronary sinus out flow” value (coronary sinus out flow; 0.2 mg/kg i.v., 1 min) was “+1.0%”, the “Changes(%) of basal values, coronary sinus out flow” value (coronary sinus out flow; 0.2 mg/kg i.v., 5 min) was 0% and the “Changes(%) of basal values, coronary sinus out flow” value (coronary sinus out flow; 0.2 mg/kg i.v., 10 min) was 0%. The “Changes(%) of basal values, coronary sinus out flow” value (coronary sinus out flow; 0.2 mg/kg i.v., 20 min) was 0%, the “Changes(%) of basal values, coronary sinus out flow” value (coronary sinus out flow; 0.2 mg/kg i.v., 30 min) was 0% and the “Changes(%) of basal values, coronary sinus out flow” value (coronary sinus out flow; 0.2 mg/kg i.v., 40 min) was 0%. For the same molecule, the “Changes(%) of basal values, coronary sinus out flow” value (coronary sinus out flow; 0.2 mg/kg i.v., imm.) was “+4.0%”, the “Changes(%) of basal values, coronary sinus out flow” value (coronary sinus out flow; 0.6 mg/kg i.v., 1 min) was “+2.5%” and the “Changes(%) of basal values, coronary sinus out flow” value (coronary sinus out flow; 0.6 mg/kg i.v., 5 min) was “+0.5%”. For the same molecule, the “Changes(%) of basal values, coronary sinus out flow” value (coronary sinus out flow; 0.6 mg/kg i.v., 10 min) was 0%, the “Changes(%) of basal values, coronary sinus out flow” value (coronary sinus out flow; 0.6 mg/kg i.v., 20 min) was 0% and the “Changes(%) of basal values, coronary sinus out flow” value (coronary sinus out flow; 0.6 mg/kg i.v., 30 min) was 0%. The “Changes(%) of basal values, coronary sinus out flow” value (coronary sinus out flow; 0.6 mg/kg i.v., 40 min) was 0%, the “Changes(%) of basal values, coronary sinus out flow” value (coronary sinus out flow; 0.6 mg/kg i.v., imm.) was “+6.0%” and the “Changes(%) of basal values, coronary sinus out flow” value (coronary sinus out flow; 2.0 mg/kg i.v., 1 min) was -3.0%. For the same molecule, the “Changes(%) of basal values, coronary sinus out flow” value (coronary sinus out flow; 2.0 mg/kg i.v., 5 min) was “+3.0%”, the “Changes(%) of basal values, coronary sinus out flow” value (coronary sinus out flow; 2.0 mg/kg i.v., 10 min) was “+9.0%” and the “Changes(%) of basal values, coronary sinus out flow” value (coronary sinus out flow; 2.0 mg/kg i.v., 20 min) was “+4.0%”. The “Changes(%) of basal values, coronary sinus out flow” value (coronary sinus out flow; 2.0 mg/kg i.v., 30 min) was 0%, the “Changes(%) of basal values, coronary sinus out flow” value (coronary sinus out flow; 2.0 mg/kg i.v., imm.) was -13.0% and the “Changes(%) of basal values, coronary sinus oxygen tension” value ([2]; 0.2 mg/kg i.v., 1 min) was “+1.0%”. The “Changes(%) of basal values, coronary sinus oxygen tension” value ([2]; 0.2 mg/kg i.v., 5 min) was 0%, the “Changes(%) of basal values, coronary sinus oxygen tension” value ([2]; 0.2 mg/kg i.v., 10 min) was 0% and the “Changes(%) of basal values, coronary sinus oxygen tension” value ([2]; 0.2 mg/kg i.v., 20 min) was 0%. For the same molecule, the “Changes(%) of basal values, coronary sinus oxygen tension” value ([2]; 0.2 mg/kg i.v., 30 min) was 0%, the “Changes(%) of basal values, coronary sinus oxygen tension” value ([2]; 0.2 mg/kg i.v., imm.) was “+3.0%” and the “Changes(%) of basal values, coronary sinus oxygen tension” value ([2]; 0.6 mg/kg i.v., 1 min) was “+5.5%”. The “Changes(%) of basal values, coronary sinus oxygen tension” value ([2]; 0.6 mg/kg i.v., 5 min) was “+1.0%”, the “Changes(%) of basal values, coronary sinus oxygen tension” value ([2]; 0.6 mg/kg i.v., 10 min) was 0% and the “Changes(%) of basal values, coronary sinus oxygen tension” value ([2]; 0.6 mg/kg i.v., 20 min) was 0%. The “Changes(%) of basal values, coronary sinus oxygen tension” value ([2]; 0.6 mg/kg i.v., 30 min) was 0%, the “Changes(%) of basal values, coronary sinus oxygen tension” value ([2]; 0.6 mg/kg i.v., imm.) was “+9.0%” and the “Changes(%) of basal values, coronary sinus oxygen tension” value ([2]; 2.0 mg/kg i.v., 1 min) was “+1.5%”. The “Changes(%) of basal values, coronary sinus oxygen tension” value ([2]; 2.0 mg/kg i.v., 5 min) was “+2.0%”, the “Changes(%) of basal values, coronary sinus oxygen tension” value ([2]; 2.0 mg/kg i.v., 10 min) was “+5.0%” and the “Changes(%) of basal values, coronary sinus oxygen tension” value ([2]; 2.0 mg/kg i.v., 20 min) was “+3.0%”. The “Changes(%) of basal values, coronary sinus oxygen tension” value ([2]; 2.0 mg/kg i.v., 30 min) was 0%, the “Changes(%) of basal values, coronary sinus oxygen tension” value ([2]; 2.0 mg/kg i.v., imm.) was “+3.0%” and the “minimum increase in oxygen tension” value ([2]; until after 5-20 minutes, i.v.) was 3-5%. The “Changes(%) of basal values, heart rate” value (heart rate; 0.2 mg/kg i.v., 1 min) was 0%, the “Changes(%) of basal values, heart rate” value (heart rate; 0.2 mg/kg i.v., 5 min) was -1.5% and the “Changes(%) of basal values, heart rate” value (heart rate; 0.2 mg/kg i.v., 10 min) was -1.0%. The “Changes(%) of basal values, heart rate” value (heart rate; 0.2 mg/kg i.v., 20 min) was 0%, the “Changes(%) of basal values, heart rate” value (heart rate; 0.2 mg/kg i.v., 30 min) was 0% and the “Changes(%) of basal values, heart rate” value (heart rate; 0.2 mg/kg i.v., imm.) was “+1.5%”. The “Changes(%) of basal values, heart rate” value (heart rate; 0.6 mg/kg i.v., 1 min) was “+0.5%”, the “Changes(%) of basal values, heart rate” value (heart rate; 0.6 mg/kg i.v., 5 min) was -0.5% and the “Changes(%) of basal values, heart rate” value (heart rate; 0.6 mg/kg i.v., 10 min) was 0%. For the same molecule, the “Changes(%) of basal values, heart rate” value (heart rate; 0.6 mg/kg i.v., 20 min) was -1.0%, the “Changes(%) of basal values, heart rate” value (heart rate; 0.6 mg/kg i.v., 30 min) was 0% and the “Changes(%) of basal values, heart rate” value (heart rate; 0.6 mg/kg i.v., imm.) was “+1.5%”. For the same molecule, the “Changes(%) of basal values, heart rate” value (heart rate; 2.0 mg/kg i.v., 1 min) was -2.0%, the “Changes(%) of basal values, heart rate” value (heart rate; 2.0 mg/kg i.v., 5 min) was -2.0% and the “Changes(%) of basal values, heart rate” value (heart rate; 2.0 mg/kg i.v., 10 min) was -1.5%. The “Changes(%) of basal values, heart rate” value (heart rate; 2.0 mg/kg i.v., 20 min) was -1.5%, the “Changes(%) of basal values, heart rate” value (heart rate; 2.0 mg/kg i.v., 30 min) was -1.5% and the “Changes(%) of basal values, heart rate” value (heart rate; 2.0 mg/kg i.v., imm.) was “+5.5%”. For the same molecule, the “depressant effect on the heart” value (coronary blood flow) was “depressant effect on the heart”.
